Reference: the supplement of paper PMC10307832

Legend:
Assay in all cases: relative viability (nuclei count vs DMSO), 5 days (fraction); higher = more cells survive
[1] = compound: C[C@]1(c2nc3c(C(N)=O)cccc3[nH]2)CCCN1 [Veliparib] + CCNC(=O)c1noc(-c2cc(C(C)C)c(O)cc2O)c1-c1ccc(CN2CCOCC2)cc1 [Luminespib] (partner 0.01 µM)
Procedure, shortened: (§1)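 Medians of duplicate plates are given as relative viability. That measure is the nuclei count in treated wells divided by the count in vehicle wells. Counts were taken on 4× images of lung cancer cell lines in 1536-well plates, 5 days after pin-tool dosing the day after seeding with one drug alone or a fixed anchor-drug dose plus five library-drug doses (not always all listed) in √10 steps.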

[2] = compound: COC1=CC=C(C=C1)CN2C=CC3=C2C=C(C=C3)C(=O)NO + COc1cccc2cc(-c3nc([C@H]4CC[C@H](C(=O)O)CC4)n4ncnc(N)c34)[nH]c12 [OSI-027] (partner 0.5 µM)
Procedure, shortened: as §1

[3] = compound: COC1=CC=C(C=C1)CN2C=CC3=C2C=C(C=C3)C(=O)NO + N=C(N)NC(=N)NCCc1ccccc1 [Phenformin] (partner 250 µM)
Procedure, shortened: as §1

[4] = compound: COC1=CC=C(C=C1)CN2C=CC3=C2C=C(C=C3)C(=O)NO + C[C@]1(O)C[C@@H](c2nc(-c3ccc4ccc(-c5ccccc5)nc4c3)c3c(N)nccn32)C1 [Linsitinib] (partner 1 µM)
Procedure, shortened: as §1

Cell Line	relative viability ([1]; first compound 0.02 µM)	relative viability ([1]; first compound 0.06325 µM)	relative viability ([1]; first compound 0.2 µM)	relative viability ([1]; first compound 0.6325 µM)	relative viability ([1]; first compound 2 µM)	relative viability ([2]; first compound 0.08 µM)	relative viability ([2]; first compound 0.253 µM)	relative viability ([2]; first compound 0.8 µM)	relative viability ([2]; first compound 2.53 µM)	relative viability ([2]; first compound 8 µM)	relative viability ([3]; first compound 0.08 µM)	relative viability ([3]; first compound 0.253 µM)	relative viability ([3]; first compound 0.8 µM)	relative viability ([3]; first compound 2.53 µM)	relative viability ([3]; first compound 8 µM)	relative viability ([4]; first compound 0.08 µM)	relative viability ([4]; first compound 0.253 µM)	relative viability ([4]; first compound 0.8 µM)	relative viability ([4]; first compound 2.53 µM)	relative viability ([4]; first compound 8 µM)
NCI-H1437	0.978	1.1	1.07	1.1	1.09	0.774	0.907	0.897	0.807	0.907	0.289	0.348	0.36	0.424	0.274	0.847	1.1	1.01	1	1.13
NCI-H322M	–	0.814	0.915	0.855	0.848	–	0.529	0.555	0.397	0.487	–	0.821	0.762	0.737	0.763	–	0.934	0.931	0.946	0.926
COR-L23	0.696	0.523	0.558	0.538	0.433	0.647	0.829	0.795	0.772	0.686	0.369	0.441	0.437	0.447	0.422	0.558	1.09	0.817	0.872	0.836
NCI-H2009	1.03	0.96	1.05	1.05	1.13	0.647	0.714	0.619	0.618	0.491	0.489	0.483	0.482	0.501	0.43	1.21	1.17	1.13	1.21	1.19
NCI-H1355	–	0.543	0.664	0.658	0.62	–	0.409	0.463	0.457	0.38	–	0.459	0.52	0.482	0.426	0.792	0.826	0.812	0.895	0.809
NCI-H838	0.287	0.32	0.302	0.295	0.25	–	0.361	0.41	0.395	0.398	–	0.589	0.6	0.628	0.456	–	1.13	1.13	1.08	0.961
EPLC-272H	0.264	0.526	0.485	0.0856	0.179	0.223	–	0.313	0.257	0.267	0.265	–	0.329	0.318	0.333	0.987	1.18	1.14	1.14	1.05
NCI-H23	0.168	–	0.251	0.24	0.228	0.511	0.68	0.582	0.732	0.53	0.699	0.843	0.852	0.712	0.653	0.406	0.619	0.564	0.599	0.544
EMC-BAC-2	1.24	1.09	1.28	1.12	1.21	0.371	0.371	0.425	0.381	0.33	0.367	0.543	0.422	0.526	0.449	0.686	0.867	0.839	0.814	0.839
NCI-H2405	0.695	0.609	0.771	0.666	0.711	0.633	0.65	0.638	0.664	0.606	0.327	0.431	0.39	0.416	0.365	0.66	0.932	0.915	0.915	0.794
NCI-H661	0.863	0.931	0.839	0.785	0.934	–	0.78	0.727	0.658	0.625	–	0.271	0.313	0.272	0.29	–	0.525	0.555	0.521	0.46
NCI-H650	0.768	0.708	0.652	0.721	0.797	0.524	0.494	0.52	0.526	0.438	0.468	0.45	0.488	0.458	0.399	0.793	0.849	0.95	0.936	0.725
HCC-15	0.302	0.314	0.252	0.191	0.334	0.625	0.715	0.672	0.742	0.529	0.344	0.515	0.486	0.483	0.408	0.802	0.877	0.887	0.968	0.915
PC-14	–	0.147	0.198	0.151	0.145	0.89	0.87	0.739	0.857	0.658	–	0.348	0.667	0.639	0.488	0.894	0.959	0.936	1.04	0.944
NCI-H1944	0.698	0.618	0.633	0.613	0.657	–	0.427	0.401	0.407	0.375	–	0.234	0.195	0.188	0.165	–	1.18	1.38	1.21	1.1
SK-MES-1	0.827	0.467	0.897	0.735	0.898	0.639	0.626	0.62	0.638	0.583	0.661	0.651	0.632	0.686	0.644	1.03	1.05	1.12	1.14	1.01
HCC-44	1.09	–	1.12	0.917	0.985	0.465	0.453	0.498	0.554	0.454	0.166	0.231	0.185	0.228	0.16	0.568	0.69	0.681	0.705	0.637
H3255	0.698	0.717	0.778	0.894	0.813	0.473	0.58	0.606	0.545	0.553	0.334	0.39	0.347	0.353	0.359	0.853	1.01	0.943	0.859	0.835
NCI-H2228	0.141	0.0988	0.145	0.123	0.154	–	0.536	0.594	0.729	0.473	–	0.381	0.3	0.305	0.24	0.77	0.733	0.971	0.578	0.58
COR-L 105	0.794	0.743	0.831	0.59	0.851	0.524	0.738	0.753	0.626	0.445	0.383	0.492	0.335	0.34	0.271	–	0.945	0.763	0.983	0.765
RERF-LC-KJ	1.26	1.25	1.2	1.21	1.29	0.589	0.594	0.662	0.617	0.495	0.362	0.412	0.484	0.408	0.347	0.763	0.883	0.867	0.901	0.945
NCI-H647	0.249	0.142	0.195	0.12	0.359	0.531	0.752	0.49	0.634	0.492	0.371	0.525	0.443	0.474	0.404	0.886	1.01	1.2	1.28	1.02
NCI-H358	0.308	0.975	0.248	0.246	0.548	–	0.861	0.722	0.739	0.67	–	0.351	0.411	0.314	0.267	–	0.903	0.792	0.742	0.851
LK-2	–	0.184	0.202	0.19	0.193	–	0.289	0.244	0.195	0.208	–	0.462	0.579	0.396	0.24	–	0.45	0.579	0.515	0.533
NCI-H460	0.0408	0.0256	0.0384	0.0245	0.0352	0.547	0.721	0.664	0.607	0.595	0.519	0.463	0.509	0.473	0.188	0.553	0.879	0.714	0.705	0.776
SK-LU-1	0.227	0.195	0.232	0.199	0.22	0.358	0.316	0.34	0.284	0.352	0.551	0.566	0.596	0.604	0.469	0.998	1.3	1.08	1.29	0.888
LU99A	0.284	0.25	0.191	0.228	0.237	–	0.326	0.295	0.259	0.258	–	0.826	0.915	0.875	0.685	–	0.581	0.533	0.552	0.569
UMC-11	1.11	0.994	1.02	0.958	0.975	–	0.469	0.554	0.463	0.477	–	0.356	0.331	0.286	0.309	0.891	0.974	1.06	0.959	0.938
